EP2818472A1, “Imidazo[4,5-c]pyridine and pyrrolo[3,2-c]pyridine compounds as G-protein-coupled receptor kinase 5 (GRK5) modulators” (Max-Planck-Gesellschaft zur Förderung der Wissenschaften …, priority 2013, dated 2014)

tested on: beta-TC6 cells; test: Insulin HTRF assay (relative activity Ar) in beta-TC6 cells; type: cell-based, mouse; conditions: Mus musculus, Beta-TC6, 4 h, insulin HTRF, supernatant of beta-TC6 cells, incubation with test compound at 37°C for 2, 3, 4h; read-out: Ar (relative activity)
Procedure, shortened: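 beta-TC6 cells (15k/well, seeded 24 or 48 h) washed, then exposed to compound in induction buffer (0.5% DMSO final) for 2, 3 or 4 h at 37°C.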

Row | SMILES | Emax [%]
1 | COc1cc(CNc2nccc3[nH]c(-c4ccccc4Cl)nc23)cc(OC)c1OC [Compound 460, 2-(2-chlorophenyl)-N-[(3,4,5-trimethoxyphenyl)methyl]-1H-imidazo[4,5-c]pyridin-4-amine] | 0 to 30
2 | Fc1ccc(Nc2nccc3[nH]c(-c4ccccc4Cl)nc23)cc1Cl [Compound 461, N-(3-chloro-4-fluoro-phenyl)-2-(2-chlorophenyl)-1H-imidazo[4,5-c]pyridin-4-amine] | 0 to 30
3 | FC(F)(F)c1cccc(Nc2nccc3[nH]c(-c4ccccc4Cl)nc23)c1 [Compound 462, 2-(2-chlorophenyl)-N-[3-(trifluoromethyl)phenyl]-1H-imidazo[4,5-c]pyridin-4-amine] | 0 to 30
4 | CS(=O)(=O)Nc1cccc(Nc2nccc3[nH]c(-c4ccccc4Cl)nc23)c1 [Compound 463, N-[3-[[2-(2-chlorophenyl)-1H-imidazo[4,5-c]pyridin-4-yl]amino]phenyl]methanesulfonamide] | 30 to 50
5 | COc1cccc(Nc2nccc3[nH]c(-c4ccco4)nc23)c1 [Compound 464, 2-(2-furyl)-N-(3-methoxyphenyl)-1H-imidazo[4,5-c]pyridin-4-amine] | 30 to 50
6 | c1cncc(Nc2nccc3[nH]c(-c4ccco4)nc23)c1 [Compound 465, 2-(2-furyl)-N-(3-pyridyl)-1H-imidazo[4,5-c]pyridin-4-amine] | 0 to 30
7 | COc1ccc(Nc2nccc3[nH]c(-c4ccco4)nc23)cc1 [Compound 466, 2-(2-furyl)-N-(4-methoxyphenyl)-1H-imidazo[4,5-c]pyridin-4-amine] | 50 to 100
8 | COc1cccc(-c2nc3c(Nc4cc(OC)c(OC)c(OC)c4)nccc3[nH]2)c1F [Compound 467, 2-(2-fluoro-3-methoxy-phenyl)-N-(3,4,5-trimethoxyphenyl)-1H-imidazo[4,5-c]pyridin-4-amine] | > 100
9 | COc1cccc(Nc2nccc3[nH]c(-c4cccc(OC)c4F)nc23)c1 [Compound 468, 2-(2-fluoro-3-methoxy-phenyl)-N-(3-methoxyphenyl)-1H-imidazo[4,5-c]pyridin-4-amine] | 30 to 50
10 | COc1ccc(Nc2nccc3[nH]c(-c4cccc(OC)c4F)nc23)cc1OC [Compound 469, N-(3,4-dimethoxyphenyl)-2-(2-fluoro-3-methoxy-phenyl)-1H-imidazo[4,5-c]pyridin-4-amine] | > 100
11 | COc1ccc(Nc2nccc3[nH]c(-c4cccc(OC)c4F)nc23)cn1 [Compound 470, 2-(2-fluoro-3-methoxy-phenyl)-N-(6-methoxy-3-pyridyl)-1H-imidazo[4,5-c]pyridin-4-amine] | 30 to 50
12 | COc1cccc(-c2nc3c(Nc4ccc(Cl)cc4)nccc3[nH]2)c1F [Compound 471, N-(4-chlorophenyl)-2-(2-fluoro-3-methoxy-phenyl)-1H-imidazo[4,5-c]pyridin-4-amine] | 0 to 30
13 | COc1cccc(-c2nc3c(Nc4ccccc4)nccc3[nH]2)c1F [Compound 472, 2-(2-fluoro-3-methoxy-phenyl)-N-phenyl-1H-imidazo[4,5-c]pyridin-4-amine] | 50 to 100
14 | COc1cccc(-c2nc3c(Nc4ccc(F)c(Cl)c4)nccc3[nH]2)c1F [Compound 474, N-(3-chloro-4-fluoro-phenyl)-2-(2-fluoro-3-methoxy-phenyl)-1H-imidazo[4,5-c]pyridin-4-amine] | 30 to 50
15 | COc1cccc(-c2nc3c(NC4CCC(N)CC4)nccc3[nH]2)c1F (centres unmarked) [Compound 476, N4-[2-(2-fluoro-3-methoxy-phenyl)-1H-imidazo[4,5-c]pyridin-4-yl]cyclohexane-1,4-diamine] | 0 to 30
16 | COc1cccc(-c2nc3c(Nc4cccc(S(C)(=O)=O)c4)nccc3[nH]2)c1F [Compound 477, 2-(2-fluoro-3-methoxy-phenyl)-N-(3-methylsulfonylphenyl)-1H-imidazo[4,5-c]pyridin-4-amine] | 30 to 50
17 | COc1cccc(-c2nc3c(Nc4cccc(O)c4)nccc3[nH]2)c1F [Compound 478, 3-[[2-(2-fluoro-3-methoxy-phenyl)-1H-imidazo[4,5-c]pyridin-4-yl]amino]phenol] | 50 to 100
18 | COc1ccc(Nc2nccc3[nH]c(-c4cccc(OC)c4F)nc23)cc1O [Compound 479, 5-[[2-(2-fluoro-3-methoxy-phenyl)-1H-imidazo[4,5-c]pyridin-4-yl]amino]-2-methoxy-phenol] | > 100
19 | COc1cccc(-c2nc3c(N4CCOCC4)nccc3[nH]2)c1F [Compound 480, 4-[2-(2-fluoro-3-methoxy-phenyl)-1H-imidazo[4,5-c]pyridin-4-yl]morpholine] | 30 to 50
20 | COc1cccc(-c2nc3c(Nc4cccc(F)c4)nccc3[nH]2)c1F [Compound 481, 2-(2-fluoro-3-methoxy-phenyl)-N-(3-fluorophenyl)-1H-imidazo[4,5-c]pyridin-4-amine] | 30 to 50
21 | CNc1nc2cnc(Nc3cc(OC)c(OC)c(OC)c3)cc2n1-c1cc(OC)c(OC)c(OC)c1 [Compound 482, N2-methyl-N6,1-bis(3,4,5-trimethoxyphenyl)imidazo[4,5-c]pyridine-2,6-diamine] | 30 to 50
22 | CNc1nc2cnc(Nc3ccc(NC(C)=O)cc3)cc2n1-c1cc(OC)c(OC)c(OC)c1 [Compound 483, N-[4-[[2-(methylamino)-1-(3,4,5-trimethoxyphenyl)imidazo[4,5-c]pyridin-6-yl]amino]phenyl]acetamide] | 50 to 100
23 | CNc1nc2cnc(Nc3cccc(OC)c3)cc2n1-c1cc(OC)c(OC)c(OC)c1 [Compound 484, N6-(3-methoxyphenyl)-N2-methyl-1-(3,4,5-trimethoxyphenyl)imidazo[4,5-c]pyridine-2,6-diamine] | 30 to 50
24 | CNc1nc2cnc(Nc3ccc(O)cc3)cc2n1-c1cc(OC)c(OC)c(OC)c1 [Compound 485, 4-[[2-(methylamino)-1-(3,4,5-trimethoxyphenyl)imidazo[4,5-c]pyridin-6-yl]amino]phenol] | 50 to 100
25 | CNc1nc2cnc(Nc3ccc(OC)cc3OC)cc2n1-c1cc(OC)c(OC)c(OC)c1 [Compound 486, N6-(2,4-dimethoxyphenyl)-N2-methyl-1-(3,4,5-trimethoxyphenyl)imidazo[4,5-c]pyridine-2,6-diamine] | 30 to 50
26 | CNc1nc2cnc(Nc3ccc4c(c3)OCCO4)cc2n1-c1cc(OC)c(OC)c(OC)c1 [Compound 487, N6-(2,3-dihydro-1,4-benzodioxin-6-yl)-N2-methyl-1-(3,4,5-trimethoxyphenyl)imidazo[4,5-c]pyridine-2,6-diamine] | 50 to 100
27 | CNc1nc2cnc(Nc3ccc(OC)nc3)cc2n1-c1cc(OC)c(OC)c(OC)c1 [Compound 488, N6-(6-methoxy-3-pyridyl)-N2-methyl-1-(3,4,5-trimethoxyphenyl)imidazo[4,5-c]pyridine-2,6-diamine] | 50 to 100
28 | CNc1nc2cnc(Nc3ccc(N4CCN(C)CC4)cc3)cc2n1-c1cc(OC)c(OC)c(OC)c1 [Compound 489, N2-methyl-N6-[4-(4-methylpiperazin-1-yl)phenyl]-1-(3,4,5-trimethoxyphenyl)imidazo[4,5-c]pyridine-2,6-diamine] | 50 to 100

same assay, conditions: Mus musculus, Beta-TC6, 4 h, read-out: Ar (relative activity)

Row | SMILES | Emax [%]
29 | CCN(CC)CCNC(=O)c1ccc(Nc2nccc3[nH]c(-c4cccc(OC)c4F)nc23)cc1 [Compound 473, N-(2-diethylaminoethyl)-4-[[2-(2-fluoro-3-methoxy-phenyl)-1H-imidazo[4,5-c]pyridin-4-yl]amino]benzamide] | > 100
